The values below are quoted from earlier work in US20250215053A1, “LYSINE RICH CELL-PENETRATING PEPTIDES” (OXFORD UNIVERSITY INNOVATION LIMITED, priority 2022, published 2025).

For the data set, the system named is dystrophin. Particulars: in vivo.

Regarding eteplirsen, the dystrophin restoration result is listed as “approximately 1 % of normal dystrophin levels”.
